In a melting point compilation (Tetko et al.; mined from patent text by program, amines drawn as free bases though some values may be those of a salt):

SMILES	melting point [°C]
Fc1cc(-n2cnnn2)ccc1-c1ccc2oc(C3CCNCC3)nc2c1	148 to 151
O=S(=O)(NCC1CCOCC1)c1ccc(Cl)cc1	118 to 119
Cc1ccc(C(=O)Nc2ccc3ccc(Cl)nc3n2)s1	220
CC(=O)N1N=C(C=Cc2ccc([N+](=O)[O-])cc2)c2cc3c(cc2CC1C)OCO3 (configuration not stated)	188 to 190
CN1C(=O)CSc2ccc(Cl)cc21	119 to 121
Cc1nnc(-c2ccc3occ(-c4ccc(S(=O)CF)cc4)c3c2)o1 (configuration not stated)	173 to 174
CCOc1nnc(NCc2ccc(OC)c(Cl)c2)c2cc(Cl)ccc12	111 to 115
CCN(CC)C(=O)C(Cl)=C(Cl)C(=O)O	154 to 155
COc1cc(OC)c2c(=O)c(OCCCOc3ccc(C(C)=C4SC(=O)NC4=O)cc3)c(-c3ccc(OC)c(OC)c3)oc2c1	198 to 200
COc1cc(C=O)ccc1OCC(=O)NCCO[N+](=O)[O-]	117 to 120
Nc1ccnn1-c1c(Cl)cc(C(F)(F)F)c(Cl)c1Cl	109 to 114
CCOC(=O)c1cnn2c1nc(Cl)c1cnc3c(cnn3CC)c12	170 to 172
CC(C)(O)c1ccc(-c2cnc3c(n2)N(CCC2CCOCC2)CC(=O)N3)cc1	210 to 212
CC(C)Oc1ccc2c(c1)N(C)C(=O)N(c1ccc(C(F)(F)F)cc1)S2(=O)=O	158 to 160
CCCCCCCCCCc1cc(C=O)on1	46 to 48
CC1=CC(O)(c2nc3ccccc3s2)C=C(C)C1=O	132
CC(C)OC(=O)N1CCC(c2nc3cc(-c4ccc(C(F)F)cc4)ccc3o2)CC1	151 to 154
COC(=O)n1c(Br)c(Br)c(C#N)c1Br	120 to 122
CCOC(=O)CCCn1c(Nc2cnc(OC)cc2C)nc2c(Cl)ccc(C(CC)CC)c21	140 to 142
N#Cc1c(-c2ccc(Cl)c(Cl)c2)[nH]c(C(F)(F)F)c1C(F)(F)F	205 to 208
Cc1cc(C(=O)NC2CC2)ccc1N1CCN(Cc2cnc3c(c2)NC(=O)[C@@H]2CCCN32)CC1	227 to 234
CCOC(C)c1ccc(OCCCN2CCC(c3noc4cc(F)ccc34)CC2)c(OC)c1 (configuration not stated)	139
COc1cc(C=O)c(CCC(=O)O)c(C=O)c1O	164 to 166
O=CC=C(c1cccc(F)c1)c1cccc(F)c1	51 to 53
CN(C)CCNc1ccc(O)c2c1C(=O)c1c(O)ccc(O)c1C2=O	171 to 172
CCCc1c(S)ccc2c(=O)cc(C(=O)OC)oc12	98 to 99
Cc1nc(N)nc(N)c1-c1ccc(Cl)cc1Cl	222

SMILES	melting point [°C]
CN1CCC(N2C(=O)CN=C(c3ccccc3)c3ccccc32)CC1	158 to 159
O=C(O)/C=C/c1ccc2c(/C=C/C(=O)O)c[nH]c2c1	> 360
Cc1nnc2ccc(-c3cccc(N4CCCC4=O)c3)nn12	235 to 237
Cc1cc(-c2nc3ccccc3c(=O)n2-c2ccc(I)cc2)cc(C)c1OCCO	101 to 103
CC(C)NC1=NS(=O)(=O)c2sc(Br)cc2N1	279
N#Cc1nn(-c2c(Cl)cc(C(F)(F)F)cc2Cl)c(-n2cncn2)c1S(=O)(=O)C(F)(F)F	172 to 174
CSc1nc2nsc(N)c2s1	160 to 166
COc1cc(C)c(NS(C)(=O)=O)cc1C(=O)NCC(Cl)CCCCl (configuration not stated)	132
CCOC(=O)CC[C@H](NC(=O)Oc1ccc(CCCCc2c(N)nc(N)nc2O)s1)C(=O)OCC	96 to 98
C[C@H](c1ccncn1)[C@@](O)(CO)c1ccc(F)cc1F	148 to 150
NCC(O)c1ccc(C(F)(F)F)cc1 (configuration not stated)	138 to 140
Nc1ncnc2c1ncn2COCCN1C(=O)c2ccccc2C1=O	256 to 258
CCCOc1ccccc1-c1nc2nc(OCC)ncc2c(=O)[nH]1	196 to 198
CCc1noc(-c2cn(-c3cccc(OC(C)C)c3)cn2)n1	107
COc1ccc(-c2nnsc2-c2ccc(OC)cc2)cc1	80 to 82
CCOC(=O)CCc1cc(O)nn1CC	91 to 92
ClC1(Cl)C(Cl)(Cl)C1(Cl)c1ccccn1	132 to 134
COc1cc(C)nc(NC(=O)NS(=O)(=O)c2cc([N+](=O)[O-])cs2)n1	155
N#Cc1nn(-c2c(Cl)cc(C(F)(F)F)cc2Cl)c(N)c1-c1ccc(SC(F)(F)F)s1	162 to 163
O=[N+]([O-])CC(SC(=S)N1CCCCC1)c1ccccc1 (configuration not stated)	86 to 90.5
CCCCN(CC)c1nc(C)nc2c1NC(=O)CN2c1ccc(C(C)C)cc1Br	146 to 147
O=C1c2ccccc2C(=O)c2c1ccc1[nH]c(=O)c(=O)[nH]c21	245 to 246
CCN(CC)CCCN1c2cc(C)c(C)cc2N(C)C(=O)c2c(C)cc(C)nc21	104 to 106
Cc1cc(-n2ccnc2)c2cccc(OCc3c(Cl)ccc(S(=O)(=O)N4CCC[C@H]4C(=O)N4CCOCC4)c3Cl)c2n1	50
COC[C@H]1O[C@H](ONC(=O)c2nc(-c3ccc(Cl)c(OC)c3F)cc(N)c2Cl)[C@H](OC)[C@@H](OC)[C@@H]1OC	184 to 187
CCCc1cc2c(=O)cc(C(=O)O)[nH]c2cc1OCCCOc1c(CCC)cc(C(C)=O)c(O)c1CCC	128 to 131
C=C=C(C)C1Oc2cccc(OC)c2-c2ccc3c(c21)C(C)=CC(C)(C)N3 (configuration not stated)	59 to 63

Second part, the molecule after the results:

melting point [°C]	SMILES
205 to 206	CCn1cc(CN(C(=O)C2CCc3c(O)cccc32)c2ccc(C(C)C)cc2)cn1 (configuration not stated)
104 to 106	CCCCCCCNC(=O)CCCCSc1nc(-c2ccccc2)c(-c2ccccc2)[nH]1
199 to 200	COCCc1nc2c(N)nc3ccccc3c2n1CCCCNC(=O)c1cc2ccccc2cn1
85 to 86	COC(=O)CN(C)C(=S)c1cccc2c(Br)cccc12
136 to 138	CCOC(=O)C(=Cc1cccn2cc(-c3ccccc3)nc12)N=[N+]=[N-]
112 to 114	CN(C)C(=O)CC1(C)OCCC2=C1c1ccccc1C2 (configuration not stated)
107 to 110	C[C@H](N[C@@H]1CNC(=O)C12CC2)c1ccccc1
97 to 99	Oc1cccc(NCCc2ccccc2)n1
131 to 134	CC(=O)N1c2ccccc2CC1c1cc(Cl)ccc1NC(=O)C(C)(C)C (configuration not stated)
153 to 155	COC(=O)CCCNC(=O)/C=C/C=C/c1ccccc1
129 to 131	CCOC(=O)COc1ccc(Cn2c(-c3ccc(OCc4ccccc4)cc3)c(C)c3cc(OCc4ccccc4)ccc32)cc1
192 to 193	COc1nc(C(C)(C)O)cnc1NS(=O)(=O)c1cccc(Cl)c1Cl
96 to 97	CCNc1cccnc1N1CCN(C(=O)c2ccc(C(=O)OC)cc2)CC1
172	CCOC(=O)C(Cc1ccc(NC(C)=O)c([N+](=O)[O-])c1)(NC(C)=O)C(=O)OCC
128 to 130	COc1ccc(OC)c(COc2ccc(S(=O)(=O)c3ccc(C)nc3Nc3c(C)cc(C)cc3C)cc2)c1
38	CCCCCCCCCCCCCCCCOCC(CO)COC(c1ccccc1)(c1ccccc1)c1ccccc1 (configuration not stated)
159 to 160	CNC(=O)c1ccccc1-c1cc(-c2ccccc2)on1
137	CC(=O)OC(C)c1ccc(-c2ccc(OCc3ccccc3)cc2)cc1 (single isomer, unassigned; (+))
139 to 140	COCCN1CCN(CCc2ccc(Nc3ncc4c(n3)-c3ccccc3C(c3ccccc3C(F)(F)F)C4)cc2)CC1 (configuration not stated)
131 to 132	COCCNC(=O)c1cccc(-c2cccc3cc(Cc4cccc(S(C)(=O)=O)c4)sc23)c1
128 to 132	CCN1C(=O)C(C)(C)C(=O)N(C)c2cc(CN(CCn3ccc4oc(C)cc4c3=O)C(C)c3cccnc3)ccc21 (configuration not stated)
161 to 162	CCCSc1ncc(C=C(Cc2cccs2)C(=O)O)n1Cc1ccccc1Cl

melting point [°C]	SMILES
125 to 126	O=C(COc1ccc([N+](=O)[O-])cc1)NCc1ccccc1
111 to 113	CC(C)(C)OC(=O)N1C2C=CC(C2)N1CC(O)C(Cc1ccccc1)NC(=O)OCc1ccccc1 (mixture of isomers)
142 to 143	O=C/C=C/c1csc(Nc2ccccc2)n1
258	CC1(C)CCC(C)(C)c2cc(-c3cc(-c4ccc(C(=O)O)cc4)ccc3OCC(O)CO)ccc21 (configuration not stated)
105 to 109	CC(C)(C)NS(=O)(=O)c1ccc([N+](=O)[O-])cc1
87.5 to 89	CC(NC(=O)CCCCCCCCC#CC#CCCCCCCCCC(=O)NC(C)c1ccccc1)c1ccccc1 (configuration not stated)
78 to 80	O=C(C=C(c1ccccc1)c1ccccc1)NCCCCc1cccnc1
184	Oc1ccccc1CNc1cncc(Br)c1
118	COC(=O)c1ccc(Br)cc1OC(=S)N(C)C
132 to 134	C[N+]1([O-])CC(c2ccccn2)C(=O)c2ccccc21 (configuration not stated)
145	CC(=O)[C@H]1C[C@H](C(=O)OC(C)(C)C)N(C(=O)CNC(=O)Nc2cccc(C(=O)O)c2)[C@@H]1c1ccccc1 (racemic)
188	O=C(CN1CCCC1)Nc1ccc(-c2cc(-c3c[nH]nc3-c3ccccn3)ccn2)cc1
118 to 120	COc1ccccc1CC(O)(c1ccccc1)C1CCN(CCCC(=O)c2ccc(C(C)(C)C)cc2)CC1 (configuration not stated)
202 to 205	O=C(Nc1ccc(Br)cc1)c1ccccc1[N+](=O)[O-]
64 to 81	Cc1cc2c(s1)Nc1ccccc1N=C2N1CCN[C@@H](COc2ccccc2)C1
> 300	Cc1cc(NC(=O)NN(c2ccccc2)c2cccc(C(=N)N)c2)ccc1N1CCCCC1=O
127 to 129	Oc1ccc(C(=C(Cl)c2ccccc2)c2ccccc2)cc1
105 to 108	O=C(c1cccnc1)C(O)c1ccccc1Br (configuration not stated)
189 to 192	O=C(O)[C@@H]1Cc2cc(O)c(O)cc2CN1C(=O)c1ccccc1
105 to 106	O=C(O)c1ccccc1OCCCCCOc1ccccc1C(=O)O
158 to 160	COc1ccc2c(c1)c(CC(=O)O)c(C)n2C(=O)c1ccccc1
